Measured values published in patent publication US20260355274A1 (Onkure, Inc., priority 2022, published 2026).

Experiments:
Format in all cases: biochemical
HDAC 10 = HDAC 10 (Homo sapiens, UniProt Q969S8); assay: enzymatic inhibition of HDAC 10; settings: HDAC 10, Class IIb
From the text: (§1) The mammalian HDACs can be divided into four classes depending on their sequence homology, sub-cellular distribution and catalytic activity. Class I, Il and IV HDACs have a Zn^2+ cofactor in the catalytic site. Class III HDACs contain sirtuins 1-7 and are NAD^+-dependent. Class I (HDACs 1, 2, 3 and 8) share the same homology as Rpd3 and are preliminarily distributed in the nucleus of normal cells. Class II HDACs can be subdivided into class IIa HDACs and class Ilb HDACs. Class IIa enzymes (HDAC 4, 5, 7 and 9) shuttle between the nucleus and cytoplasm and are located in specific tissues such as the brain, heart, and muscle. Class IIb (HDACs 6 and 10) are chiefly located in the cytoplasm.

HDAC 7 = HDAC 7 (Homo sapiens, UniProt Q8WUI4); assay: enzymatic inhibition of HDAC 7; settings: HDAC 7, Class IIa; read-out: IC50
Chain of HDAC 7 (Q8WUI4 whole entry): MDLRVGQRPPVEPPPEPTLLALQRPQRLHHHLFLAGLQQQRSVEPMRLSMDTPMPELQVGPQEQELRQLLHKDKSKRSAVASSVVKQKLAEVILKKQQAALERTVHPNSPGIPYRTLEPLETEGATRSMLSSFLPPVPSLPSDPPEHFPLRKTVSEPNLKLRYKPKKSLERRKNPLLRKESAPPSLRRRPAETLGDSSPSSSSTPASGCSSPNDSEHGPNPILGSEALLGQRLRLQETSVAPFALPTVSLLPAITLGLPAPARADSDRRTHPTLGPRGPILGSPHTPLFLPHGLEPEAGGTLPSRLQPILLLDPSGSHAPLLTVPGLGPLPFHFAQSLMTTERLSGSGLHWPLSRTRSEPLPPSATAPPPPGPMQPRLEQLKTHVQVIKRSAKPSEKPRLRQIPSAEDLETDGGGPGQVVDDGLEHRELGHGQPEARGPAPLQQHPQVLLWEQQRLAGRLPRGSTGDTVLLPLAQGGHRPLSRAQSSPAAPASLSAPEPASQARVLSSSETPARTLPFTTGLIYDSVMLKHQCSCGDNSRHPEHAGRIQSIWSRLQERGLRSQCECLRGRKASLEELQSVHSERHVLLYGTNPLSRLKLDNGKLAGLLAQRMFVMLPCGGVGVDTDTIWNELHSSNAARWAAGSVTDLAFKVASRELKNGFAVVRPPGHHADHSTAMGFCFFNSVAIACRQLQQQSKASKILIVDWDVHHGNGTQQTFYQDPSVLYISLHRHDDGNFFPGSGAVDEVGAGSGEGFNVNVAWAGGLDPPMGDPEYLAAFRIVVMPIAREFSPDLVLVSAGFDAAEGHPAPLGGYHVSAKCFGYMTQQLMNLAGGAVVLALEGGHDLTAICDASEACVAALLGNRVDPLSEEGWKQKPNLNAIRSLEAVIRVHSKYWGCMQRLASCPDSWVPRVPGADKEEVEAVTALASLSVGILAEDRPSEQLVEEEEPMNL
From the text: as §1

HDAC 1 = HDAC 1 (Homo sapiens, UniProt Q13547); assay: enzymatic inhibition of HDAC 1; settings: HDAC 1, Class I
Chain of HDAC 1 (Q13547 whole entry): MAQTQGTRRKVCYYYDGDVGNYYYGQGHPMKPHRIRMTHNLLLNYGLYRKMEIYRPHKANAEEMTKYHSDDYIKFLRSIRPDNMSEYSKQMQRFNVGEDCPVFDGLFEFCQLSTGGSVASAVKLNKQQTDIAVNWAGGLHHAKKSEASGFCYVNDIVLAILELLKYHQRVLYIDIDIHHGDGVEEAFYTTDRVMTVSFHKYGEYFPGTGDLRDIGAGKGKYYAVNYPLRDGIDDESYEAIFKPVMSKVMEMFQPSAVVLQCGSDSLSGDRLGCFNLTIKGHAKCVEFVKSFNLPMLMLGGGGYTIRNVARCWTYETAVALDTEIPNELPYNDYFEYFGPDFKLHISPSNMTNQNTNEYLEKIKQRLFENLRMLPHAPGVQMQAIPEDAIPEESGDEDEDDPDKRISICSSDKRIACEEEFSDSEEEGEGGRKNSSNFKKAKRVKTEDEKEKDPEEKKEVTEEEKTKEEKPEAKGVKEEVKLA
From the text: as §1

HDAC 5 = HDAC 5 (Homo sapiens, UniProt Q9UQL6); assay: enzymatic inhibition of HDAC 5; settings: HDAC 5, Class IIa; read-out: IC50
From the text: as §1

Class I HDAC = assay: enzymatic inhibition of Class I HDACs (summary); settings: in words
From the text: as §1

HDAC 2 = HDAC 2 (Homo sapiens, UniProt Q92769); assay: enzymatic inhibition of HDAC 2; settings: HDAC 2, Class I
From the text: as §1

HDAC 9 = HDAC 9 (Homo sapiens, UniProt Q9UKV0); assay: enzymatic inhibition of HDAC 9; settings: HDAC 9, Class IIa; read-out: IC50
Chain of HDAC 9 (Q9UKV0 whole entry): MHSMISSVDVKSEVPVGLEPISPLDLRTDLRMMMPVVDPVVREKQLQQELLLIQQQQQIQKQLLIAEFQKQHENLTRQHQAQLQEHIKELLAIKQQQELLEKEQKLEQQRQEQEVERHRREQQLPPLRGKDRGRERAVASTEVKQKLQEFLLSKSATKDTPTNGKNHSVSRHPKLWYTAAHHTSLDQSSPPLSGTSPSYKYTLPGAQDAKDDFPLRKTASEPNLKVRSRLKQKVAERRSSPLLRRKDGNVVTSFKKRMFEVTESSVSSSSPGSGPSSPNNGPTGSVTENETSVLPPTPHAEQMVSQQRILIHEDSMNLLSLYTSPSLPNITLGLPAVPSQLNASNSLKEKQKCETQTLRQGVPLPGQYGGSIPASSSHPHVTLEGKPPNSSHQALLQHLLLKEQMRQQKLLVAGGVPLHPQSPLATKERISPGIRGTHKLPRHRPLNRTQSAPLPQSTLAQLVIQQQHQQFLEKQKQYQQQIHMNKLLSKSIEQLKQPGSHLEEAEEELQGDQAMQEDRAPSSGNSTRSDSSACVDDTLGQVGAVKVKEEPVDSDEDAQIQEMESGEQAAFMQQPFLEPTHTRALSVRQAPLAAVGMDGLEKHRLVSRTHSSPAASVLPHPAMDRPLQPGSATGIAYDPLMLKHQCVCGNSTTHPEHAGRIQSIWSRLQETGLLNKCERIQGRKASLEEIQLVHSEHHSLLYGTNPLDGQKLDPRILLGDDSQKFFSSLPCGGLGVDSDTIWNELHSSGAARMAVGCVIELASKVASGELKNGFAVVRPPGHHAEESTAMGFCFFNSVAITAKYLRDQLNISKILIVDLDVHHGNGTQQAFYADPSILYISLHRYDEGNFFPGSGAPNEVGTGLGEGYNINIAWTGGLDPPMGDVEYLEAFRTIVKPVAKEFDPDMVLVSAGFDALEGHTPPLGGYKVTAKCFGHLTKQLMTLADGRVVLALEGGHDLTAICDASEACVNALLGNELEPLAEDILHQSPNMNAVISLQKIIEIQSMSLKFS
From the text: as §1

HDAC 6 = HDAC 6 (Homo sapiens, UniProt Q9UBN7); assay: enzymatic inhibition of HDAC 6; settings: HDAC 6, Class IIb; read-out: IC50
From the text: as §1

HDAC 4 = HDAC 4 (Homo sapiens, UniProt P56524); assay: enzymatic inhibition of HDAC 4; settings: HDAC 4, Class IIa; read-out: IC50
Chain of HDAC 4 (P56524 whole entry): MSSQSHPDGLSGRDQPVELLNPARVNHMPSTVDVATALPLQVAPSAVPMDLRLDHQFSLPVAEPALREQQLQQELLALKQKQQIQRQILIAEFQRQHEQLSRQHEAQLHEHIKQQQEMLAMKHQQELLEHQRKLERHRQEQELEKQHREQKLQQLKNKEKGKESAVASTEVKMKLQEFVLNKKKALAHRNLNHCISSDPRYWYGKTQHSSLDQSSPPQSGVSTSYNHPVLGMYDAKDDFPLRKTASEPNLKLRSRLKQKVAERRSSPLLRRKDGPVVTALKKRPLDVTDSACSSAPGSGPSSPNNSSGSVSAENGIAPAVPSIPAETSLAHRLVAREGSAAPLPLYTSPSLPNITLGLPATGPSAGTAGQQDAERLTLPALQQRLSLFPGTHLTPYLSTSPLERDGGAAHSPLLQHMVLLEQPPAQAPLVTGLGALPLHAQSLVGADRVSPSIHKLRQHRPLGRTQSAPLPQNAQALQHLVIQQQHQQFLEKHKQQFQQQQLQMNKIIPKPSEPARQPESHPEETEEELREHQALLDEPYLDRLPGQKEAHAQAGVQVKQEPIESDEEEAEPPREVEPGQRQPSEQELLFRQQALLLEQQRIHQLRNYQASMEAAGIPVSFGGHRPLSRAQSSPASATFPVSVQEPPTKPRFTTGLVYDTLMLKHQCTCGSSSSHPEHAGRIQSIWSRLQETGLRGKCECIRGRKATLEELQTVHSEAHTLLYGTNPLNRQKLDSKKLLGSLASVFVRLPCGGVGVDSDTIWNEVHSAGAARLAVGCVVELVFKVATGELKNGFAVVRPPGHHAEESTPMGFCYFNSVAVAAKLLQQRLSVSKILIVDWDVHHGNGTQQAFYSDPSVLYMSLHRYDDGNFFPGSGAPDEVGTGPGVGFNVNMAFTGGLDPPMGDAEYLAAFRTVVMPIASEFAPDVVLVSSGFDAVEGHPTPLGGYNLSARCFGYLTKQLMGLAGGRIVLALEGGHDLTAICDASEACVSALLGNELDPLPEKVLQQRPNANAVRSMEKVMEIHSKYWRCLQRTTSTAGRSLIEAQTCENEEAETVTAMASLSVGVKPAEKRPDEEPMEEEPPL
From the text: as §1

HDAC 8 = HDAC 8 (Homo sapiens, UniProt Q9BY41); assay: enzymatic inhibition of HDAC 8; settings: HDAC 8, Class I; read-out: IC50
Chain of HDAC 8 (Q9BY41 whole entry): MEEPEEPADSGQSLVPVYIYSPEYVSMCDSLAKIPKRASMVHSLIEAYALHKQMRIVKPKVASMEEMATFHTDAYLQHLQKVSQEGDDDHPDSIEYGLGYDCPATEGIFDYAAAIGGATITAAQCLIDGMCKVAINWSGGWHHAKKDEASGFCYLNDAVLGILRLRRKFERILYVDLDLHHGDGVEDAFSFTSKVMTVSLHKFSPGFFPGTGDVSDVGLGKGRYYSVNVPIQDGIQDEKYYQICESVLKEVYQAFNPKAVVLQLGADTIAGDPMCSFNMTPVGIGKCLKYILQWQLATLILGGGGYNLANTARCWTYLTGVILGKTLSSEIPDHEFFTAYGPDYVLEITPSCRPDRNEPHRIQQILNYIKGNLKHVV
From the text: as §1

HDAC 3 = HDAC 3 (Homo sapiens, UniProt O15379); assay: enzymatic inhibition of HDAC 3; settings: HDAC 3, Class I
Chain of HDAC 3 (O15379 whole entry): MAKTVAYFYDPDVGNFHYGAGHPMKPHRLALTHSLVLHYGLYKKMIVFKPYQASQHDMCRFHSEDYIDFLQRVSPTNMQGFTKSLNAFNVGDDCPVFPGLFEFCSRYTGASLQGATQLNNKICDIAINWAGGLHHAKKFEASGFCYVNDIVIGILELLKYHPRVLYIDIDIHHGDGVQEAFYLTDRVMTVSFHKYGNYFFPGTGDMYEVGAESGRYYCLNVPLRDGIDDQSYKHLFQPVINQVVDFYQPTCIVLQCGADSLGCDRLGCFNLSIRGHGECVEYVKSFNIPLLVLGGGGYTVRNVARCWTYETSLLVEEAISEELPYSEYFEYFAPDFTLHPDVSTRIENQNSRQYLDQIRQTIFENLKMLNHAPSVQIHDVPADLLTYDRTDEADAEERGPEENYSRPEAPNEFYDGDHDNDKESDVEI
Chain of HDAC 3 (Q9Y618 395-489 partner limits assumed): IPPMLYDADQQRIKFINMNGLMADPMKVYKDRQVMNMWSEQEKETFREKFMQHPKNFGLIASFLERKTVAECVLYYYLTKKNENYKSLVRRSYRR
From the text: as §1

HDAC 11 = HDAC 11 (Homo sapiens, UniProt Q96DB2); assay: enzymatic inhibition of HDAC 11; settings: HDAC 11, Class IV
Chain of HDAC 11 (Q96DB2 whole entry): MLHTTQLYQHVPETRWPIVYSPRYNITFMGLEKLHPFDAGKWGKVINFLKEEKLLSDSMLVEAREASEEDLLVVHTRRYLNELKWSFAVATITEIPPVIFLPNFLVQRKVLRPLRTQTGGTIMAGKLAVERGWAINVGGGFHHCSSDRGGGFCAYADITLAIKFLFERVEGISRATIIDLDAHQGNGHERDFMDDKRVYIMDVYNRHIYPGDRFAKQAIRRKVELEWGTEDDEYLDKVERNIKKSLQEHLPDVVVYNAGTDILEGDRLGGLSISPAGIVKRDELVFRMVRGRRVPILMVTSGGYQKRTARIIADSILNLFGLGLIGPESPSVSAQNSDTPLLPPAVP
From the text: as §1

- IC50 (HDAC 10): 2.8 nM
- IC50 (HDAC 7): > 1000 nM
- IC50 (HDAC 1): 1.2 nM
- IC50 (HDAC 5): > 1000 nM
- IC50 (HDAC 2): 2.4 nM
- IC50 (HDAC 9): > 1000 nM
- IC50 (HDAC 6): 47 nM
- IC50 (HDAC 4): > 1000 nM
- IC50 (HDAC 8): 49 nM
- IC50 (HDAC 3): 2 nM
- IC50 (HDAC 11): 2.3 nM
Structure (SMILES): CC(C)[C@@H]1NC(=O)C(C)(C)NC(=O)c2csc(n2)CNC(=O)C[C@@H](/C=C/CCS)OC1=O [OKI-006]
- potency / selectivity for Class I HDAC (Class I HDAC): high potency for Class I HDAC inhibitors
